Values of other authors in US20240238347A1, “PHOTORECEPTOR CELLS FOR RETINAL AND MACULAR REPAIR” (The Johns Hopkins University, priority 2021, published 2024).
Like-named read-outs stand apart in the source and are kept apart here.

Key:
[1] = test system: ESC- and iPSC-derived organoids
[2] = test system: WERI-Rb1 retinoblastoma cells; conditions: retinoblastoma cell line treated with T3
Thrβ mutant organoids = conditions: Thrβ KO+T3; early T3 addition
[3] = 'Early RA': 1.0 μM RA from days 43 to 130
[4] = 'Late RA': 1.0 μM RA from days 130 to 200
[5] = wild type+T3, 20 nM T3 starting from days 20 to 50 until day 200 of differentiation

| Structure (SMILES) | L cones at day 200 (human retinal organoids; [3]) [%] | M cones at day 200 (human retinal organoids; [3]) [%] | co-expressing cones at day 200 (human retinal organoids; [3]) [%] | L cones at day 200 (human retinal organoids; [4]) [%] | M cones at day 200 (human retinal organoids; [4]) [%] | co-expressing cones at day 200 (human retinal organoids; [4]) [%] | M-opsin and L-opsin expression (RNA-seq) (human retinal organoids; ESC-derived organoids grown in 'Early RA' conditions) | overall M/L cone densities at day 200 (human retinal organoids; across experimental conditions (No RA, Early RA, Late RA)) | M-opsin expression (previously published RNA-seq data) (human retinal organoids; iPSC-derived organoids grown in 'Early RA' conditions) | organoid differentiation / M or L cone yield (human retinal organoids; supplemental RA throughout development (N=6)) | cone density ([1]; early T3 addition in organoids) | L/M cones (L/M-opsin expressing), share of cones [1, 5] [%] | S cones (S-opsin expressing), share of cones [1, 5] [%] | L/M-opsin expression [2] | L/M cones, share of cones (Thrβ mutant organoids) [%] | S cones, share of cones (Thrβ mutant organoids) [%] |
| --- | --- | --- | --- | --- | --- | --- | --- | --- | --- | --- | --- | --- | --- | --- | --- | --- |
| CC1=C(/C=C/C(C)=C/C=C/C(C)=C/C(=O)O)C(C)(C)CCC1 [RA, all-trans retinoic acid] | 1.65 | 98.35 | 0 | 92.56 | 6.35 | 1.10 | high M-opsin and minimal L-opsin expression | no significant differences | near exclusive expression of M-opsin | failed to differentiate, yielding minimal M or L cones |  |  |  |  |  |  |
| N[C@@H](Cc1cc(I)c(Oc2ccc(O)c(I)c2)c(I)c1)C(=O)O [T3, triiodothyronine] |  |  |  |  |  |  |  |  |  |  | dramatically increased cone density | 96 | 4 | expresses L/M-opsin | 0 | 100 |
